According to PubChem BioAssay AID330 (DTP/NCI, 2004):
Values joined by “and” are separate entries in the source; they are usually repeats but may differ in a detail not shown here. Equal entries are not always repeated. Toxic doses and inconclusive results are not listed.

System: P388 leukemia ip, CD2F1 mice, survival T/C
Experiment: NCI In Vivo Anticancer Drug Screen. Data for tumor model P388 Leukemia (intraperitoneal) in CD2F1 (CDF1) mice
Details: endpoint: median survival time, higher = longer survival
In short: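 Mice carrying the transplanted tumor received test compound or vehicle. Survival was recorded in each group, and the value is the treated-group measurement divided by that of the vehicle-treated control group.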

[1] = dose: 6.25 mg/kg/injection, schedule: Q04DX003 (ip), vehicle: saline
[2] = dose: 12.5 mg/kg/injection, schedule: Q04DX003 (ip), vehicle: saline
[3] = dose: 25.0 mg/kg/injection, schedule: Q01DX005 (ip), vehicle: saline
[4] = dose: 60.0 mg/kg/injection, schedule: Q01DX005 (ip), vehicle: saline with Tween-80
[5] = dose: 120.0 mg/kg/injection, schedule: Q01DX005 (ip), vehicle: saline with Tween-80
[6] = dose: 240.0 mg/kg/injection, schedule: Q01DX005 (ip), vehicle: saline with Tween-80
[7] = dose: 100.0 mg/kg/injection, schedule: Q04DX003 (ip), vehicle: saline with Tween-80
[8] = dose: 200.0 mg/kg/injection, schedule: Q04DX003 (ip), vehicle: saline with Tween-80
[9] = dose: 400.0 mg/kg/injection, schedule: Q04DX003 (ip), vehicle: saline with Tween-80
[10] = dose: 50.0 mg/kg/injection, schedule: Q01DX005 (ip), vehicle: saline with Tween-80
[11] = dose: 100.0 mg/kg/injection, schedule: Q01DX005 (ip), vehicle: saline with Tween-80
[12] = dose: 200.0 mg/kg/injection, schedule: Q01DX005 (ip), vehicle: saline with Tween-80

With `C=C(C)[C@H]1CN[C@H](C(=O)O)[C@H]1CC(=O)O` the T/C (dose: 0.62 mg/kg/injection, schedule: Q01DX005 (ip), vehicle: saline) was 98 % of control, the T/C (dose: 1.25 mg/kg/injection, schedule: Q01DX005 (ip), vehicle: saline) was 92 % of control and the T/C (dose: 2.5 mg/kg/injection, schedule: Q01DX005 (ip), vehicle: saline) was 99 % of control and 92 % of control. For the same molecule, the T/C (dose: 5.0 mg/kg/injection, schedule: Q01DX005 (ip), vehicle: saline) was 93 % of control and 96 % of control, the T/C (dose: 10.0 mg/kg/injection, schedule: Q01DX005 (ip), vehicle: saline) was 99 % of control and 101 % of control and the T/C (dose: 20.0 mg/kg/injection, schedule: Q01DX005 (ip), vehicle: saline) was 100 % of control and 116 % of control. The T/C (dose: 40.0 mg/kg/injection, schedule: Q01DX005 (ip), vehicle: saline) was 105 % of control.
With `CC1(C)N=C(N)N=C(N)N1c1ccc(F)c(C(F)(F)F)c1` the T/C (dose: 1.0 mg/kg/injection, schedule: Q01DX009 (ip), vehicle: saline) was 118 % of control, the T/C (dose: 4.0 mg/kg/injection, schedule: Q08DX002 (ip), vehicle: saline) was 119 % of control and the T/C (dose: 8.0 mg/kg/injection, schedule: Q01DX009 (ip), vehicle: saline) was 170 % of control. The T/C (dose: 8.0 mg/kg/injection, schedule: Q08DX002 (ip), vehicle: saline) was 120 % of control, the T/C (dose: 16.0 mg/kg/injection, schedule: Q01DX009 (ip), vehicle: saline) was 181 % of control and the T/C (dose: 32.0 mg/kg/injection, schedule: Q01DX001 (ip), vehicle: saline) was 121 % of control. The T/C (dose: 32.0 mg/kg/injection, schedule: Q01DX009 (ip), vehicle: saline) was 190 % of control, the T/C (dose: 64.0 mg/kg/injection, schedule: Q01DX001 (ip), vehicle: saline) was 121 % of control and the T/C (dose: 64.0 mg/kg/injection, schedule: Q01DX009 (ip), vehicle: saline) was 90 % of control. For the same molecule, the T/C (dose: 128.0 mg/kg/injection, schedule: Q01DX001 (ip), vehicle: saline) was 122 % of control.
With `C=CC(=NC(C)(C)C)Nc1cccc(Cl)c1` the T/C [1] was 98 % of control, the T/C [2] was 102 % of control and the T/C (dose: 25.0 mg/kg/injection, schedule: Q04DX003 (ip), vehicle: saline) was 100 % of control.
With `C=C(C(=O)O)C(N)C(=O)O` (centres undefined) the T/C [3] was 98 % of control, the T/C (dose: 50.0 mg/kg/injection, schedule: Q01DX005 (ip), vehicle: saline) was 98 % of control and the T/C (dose: 100.0 mg/kg/injection, schedule: Q01DX005 (ip), vehicle: saline) was 112 % of control. For the same molecule, the T/C (dose: 200.0 mg/kg/injection, schedule: Q01DX005 (ip), vehicle: saline) was 97 % of control and the T/C (dose: 400.0 mg/kg/injection, schedule: Q01DX005 (ip), vehicle: saline) was 96 % of control.
`CC(C)(C)[Si](C)(C)OC(=O)Nc1ccc(N(CCCl)CCCl)cc1` was tested, and the T/C (dose: 0.05 mg/kg/injection, schedule: Q01DX009 (ip), vehicle: saline with Tween-80) was 122 % of control, the T/C (dose: 0.07 mg/kg/injection, schedule: Q01DX009 (ip), vehicle: saline with Tween-80) was 105 % of control and the T/C (dose: 0.11 mg/kg/injection, schedule: Q01DX009 (ip), vehicle: saline with Tween-80) was 118 % of control. For the same molecule, the T/C (dose: 0.16 mg/kg/injection, schedule: Q01DX009 (ip), vehicle: saline with Tween-80) was 123 % of control, the T/C (dose: 5.0 mg/kg/injection, schedule: Q04DX003 (ip), vehicle: distilled water + Tween-80) was 153 % of control and 165 % of control and the T/C (dose: 10.0 mg/kg/injection, schedule: Q04DX003 (ip), vehicle: distilled water + Tween-80) was 158 % of control and 161 % of control and 203 % of control. The T/C (dose: 40.0 mg/kg/injection, schedule: Q04DX003 (ip), vehicle: distilled water + Tween-80) was 100 % of control, the T/C (dose: 1.5 micrograms/kg/injection, schedule: Q01DX009 (ip), vehicle: saline) was 95 % of control and the T/C (dose: 3.1 micrograms/kg/injection, schedule: Q01DX009 (ip), vehicle: saline) was 97 % of control. The T/C (dose: 6.2 micrograms/kg/injection, schedule: Q01DX009 (ip), vehicle: saline) was 102 % of control, the T/C (dose: 12.5 micrograms/kg/injection, schedule: Q01DX009 (ip), vehicle: saline) was 104 % of control and the T/C (dose: 25.0 micrograms/kg/injection, schedule: Q01DX009 (ip), vehicle: saline) was 94 % of control. The T/C (dose: 50.0 micrograms/kg/injection, schedule: Q01DX009 (ip), vehicle: saline) was 110 % of control.
For `O=C(CCl)N1C(=O)NC(c2ccc(Cl)cc2)(c2ccc(Cl)cc2)C1=O`, the T/C (dose: 5.0 mg/kg/injection, schedule: Q04DX003 (ip), vehicle: other) was 105 % of control, the T/C (dose: 10.0 mg/kg/injection, schedule: Q04DX003 (ip), vehicle: other) was 116 % of control and the T/C (dose: 20.0 mg/kg/injection, schedule: Q04DX003 (ip), vehicle: other) was 108 % of control and 123 % of control.
In the case of `CS/C(=C/c1ccc2ccccc2[n+]1C)N1CCN(C)CC1`, the T/C (dose: 6.25 mg/kg/injection, schedule: Q01DX005 (ip), vehicle: saline) is reported as 99 % of control, the T/C (dose: 12.5 mg/kg/injection, schedule: Q01DX005 (ip), vehicle: saline) is reported as 98 % of control and the T/C [3] is reported as 102 % of control.
In the case of `CCOC(=O)NC(c1ccc(C(NC(=O)OCC)P(=O)(O)NC23CC4CC(CC(C4)C2)C3)cc1)P(=O)(O)NC12CC3CC(CC(C3)C1)C2` (centres undefined), the T/C [4] is reported as 105 % of control, the T/C [5] is reported as 105 % of control and the T/C [6] is reported as 98 % of control.
For `CC(O)(CC(=O)O)CC(=O)O`, the T/C (dose: 25.0 mg/kg/injection, schedule: Q01DX005 (ip), vehicle: water) was 101 % of control, the T/C (dose: 50.0 mg/kg/injection, schedule: Q01DX005 (ip), vehicle: water) was 100 % of control and the T/C (dose: 100.0 mg/kg/injection, schedule: Q01DX005 (ip), vehicle: water) was 95 % of control. For the same molecule, the T/C (dose: 200.0 mg/kg/injection, schedule: Q01DX005 (ip), vehicle: water) was 90 % of control and the T/C (dose: 400.0 mg/kg/injection, schedule: Q01DX005 (ip), vehicle: water) was 92 % of control.
With `Cc1cc(C)n2[nH]c(=O)cc2n1` the T/C (dose: 25.0 mg/kg/injection, schedule: Q01DX009 (ip), vehicle: suspension in saline) was 99 % of control, the T/C (dose: 50.0 mg/kg/injection, schedule: Q01DX009 (ip), vehicle: suspension in saline) was 97 % of control and the T/C (dose: 100.0 mg/kg/injection, schedule: Q01DX009 (ip), vehicle: suspension in saline) was 97 % of control. For the same molecule, the T/C (dose: 200.0 mg/kg/injection, schedule: Q01DX009 (ip), vehicle: suspension in saline) was 98 % of control.
`N#CC/C(=N\Nc1ccc([N+](=O)[O-])cc1[N+](=O)[O-])c1ccccc1` was tested, and the T/C [7] was 100 % of control, the T/C [8] was 90 % of control and the T/C [9] was 95 % of control.
`CC(=O)N[C@H]1CCC2[C@@H]3CCC4=CC(=O)NCC[C@]4(C)C3CC[C@@]21C` (some centres undefined) was tested, and the T/C [4] was 95 % of control, the T/C [5] was 92 % of control and the T/C [6] was 94 % of control.
With `C=C(C)c1c2ccccc2cc2cccc(Sc3ccc(C(C)(C)C)cc3)c12` the T/C (dose: 100.0 mg/kg/injection, schedule: Q04DX002 (ip), vehicle: saline with Tween-80) was 101 % of control, the T/C (dose: 200.0 mg/kg/injection, schedule: Q04DX002 (ip), vehicle: saline with Tween-80) was 96 % of control and the T/C (dose: 400.0 mg/kg/injection, schedule: Q04DX002 (ip), vehicle: saline with Tween-80) was 92 % of control.
With `CC(C)(C)OC(=O)NCCCCC(NC(=O)OCc1ccccc1)C(=O)ON1C(=O)CCC1=O` (centres undefined) the T/C [10] was 101 % of control, the T/C [11] was 102 % of control and the T/C [12] was 107 % of control.
`CCN(C(=O)COc1ccc(Cl)cc1Cl)c1ccccc1C` was tested, and the T/C [7] was 100 % of control, the T/C [8] was 100 % of control and the T/C [9] was 100 % of control.
`C(=C\c1cc2cc(C3=NCCN3)ccc2[nH]1)/c1ccc(C2=NCCN2)cc1` was tested, and the T/C [1] was 107 % of control and 108 % of control and the T/C [2] was 117 % of control and 119 % of control.
For `CCOC(=O)c1c(C)c(C(C)=O)c2ccccn12`, the T/C [4] was 104 % of control, the T/C [5] was 119 % of control and the T/C [6] was 105 % of control.
With `CC1(C)Cc2cc3ccccc3nc2-c2ccccc21` the T/C [10] was 107 % of control, the T/C [11] was 102 % of control and the T/C [12] was 107 % of control.
With `CCCCCCCCCCCCCCC(O)c1ccccc1` (centres undefined) the T/C (dose: 7.5 mg/kg/injection, schedule: Q01DX009 (ip), vehicle: Klucel (hydroxypropylcellulose) (HPC)) was 113 % of control, the T/C (dose: 15.0 mg/kg/injection, schedule: Q01DX009 (ip), vehicle: Klucel (hydroxypropylcellulose) (HPC)) was 115 % of control and the T/C (dose: 30.0 mg/kg/injection, schedule: Q01DX009 (ip), vehicle: Klucel (hydroxypropylcellulose) (HPC)) was 110 % of control.
For `CCOC(=O)c1c[nH]c2c(Cl)c(Cl)ccc2c1=O`, the T/C (dose: 50.0 mg/kg/injection, schedule: Q01DX009 (ip), vehicle: Klucel (hydroxypropylcellulose) (HPC)) was 102 % of control and the T/C (dose: 100.0 mg/kg/injection, schedule: Q01DX009 (ip), vehicle: Klucel (hydroxypropylcellulose) (HPC)) was 95 % of control.
